This note sets out measurements from ChEMBL document CHEMBL5465560, “Selectivity Literature for EUbOPEN Chemogenomic Library” (2024).

In assay [1] the target is T1, Megakaryocyte-associated tyrosine-protein kinase (Homo sapiens) (UniProt P42679).
T1 sequence (whole entry): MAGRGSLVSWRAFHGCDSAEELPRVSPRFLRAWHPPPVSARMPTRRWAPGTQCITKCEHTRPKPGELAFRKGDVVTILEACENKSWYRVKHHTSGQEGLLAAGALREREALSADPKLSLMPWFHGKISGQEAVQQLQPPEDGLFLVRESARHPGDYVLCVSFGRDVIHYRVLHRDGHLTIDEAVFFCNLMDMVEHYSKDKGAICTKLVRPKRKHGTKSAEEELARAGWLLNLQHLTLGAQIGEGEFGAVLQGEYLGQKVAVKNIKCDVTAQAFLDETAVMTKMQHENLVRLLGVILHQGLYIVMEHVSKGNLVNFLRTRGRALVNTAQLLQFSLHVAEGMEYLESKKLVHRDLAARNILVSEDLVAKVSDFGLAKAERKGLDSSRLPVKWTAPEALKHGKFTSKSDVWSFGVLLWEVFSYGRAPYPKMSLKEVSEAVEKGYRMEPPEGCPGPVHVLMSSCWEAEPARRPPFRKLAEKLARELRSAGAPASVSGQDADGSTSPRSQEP
The assay can be described thus: Selectivity interaction (KinomeScan (DiscoverX)) EUB0000666a MATK. Particulars: at 10 µM.

In assay [2] the target is T2, Serine/threonine-protein kinase D3 (Homo sapiens) (UniProt O94806).
T2 sequence (whole entry): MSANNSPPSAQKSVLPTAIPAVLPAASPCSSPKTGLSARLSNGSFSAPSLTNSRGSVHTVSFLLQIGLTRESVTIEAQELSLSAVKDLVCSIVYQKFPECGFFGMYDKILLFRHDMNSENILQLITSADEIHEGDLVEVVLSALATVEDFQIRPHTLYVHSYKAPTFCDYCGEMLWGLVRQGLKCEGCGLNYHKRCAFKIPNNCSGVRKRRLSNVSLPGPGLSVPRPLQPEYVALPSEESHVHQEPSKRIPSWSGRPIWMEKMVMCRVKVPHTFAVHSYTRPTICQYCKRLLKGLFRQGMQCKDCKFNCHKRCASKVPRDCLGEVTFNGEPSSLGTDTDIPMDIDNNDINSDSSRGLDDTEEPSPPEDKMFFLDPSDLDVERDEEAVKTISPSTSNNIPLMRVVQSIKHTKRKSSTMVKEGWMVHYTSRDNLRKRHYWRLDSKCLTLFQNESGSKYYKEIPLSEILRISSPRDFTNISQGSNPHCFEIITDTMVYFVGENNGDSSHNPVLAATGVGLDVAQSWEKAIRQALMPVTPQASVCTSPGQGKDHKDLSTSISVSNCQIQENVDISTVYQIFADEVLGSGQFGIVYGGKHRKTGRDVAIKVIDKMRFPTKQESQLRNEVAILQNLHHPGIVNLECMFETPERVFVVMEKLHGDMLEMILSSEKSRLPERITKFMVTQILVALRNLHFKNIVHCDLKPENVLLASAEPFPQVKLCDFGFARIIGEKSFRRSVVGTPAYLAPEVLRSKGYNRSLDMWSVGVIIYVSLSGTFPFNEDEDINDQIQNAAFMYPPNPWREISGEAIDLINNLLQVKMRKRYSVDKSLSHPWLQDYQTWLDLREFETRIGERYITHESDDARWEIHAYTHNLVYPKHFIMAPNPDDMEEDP
Briefly: Selectivity interaction (KinomeScan (DiscoverX)) EUB0000607a PRKD3. The following applies: at 10 µM.

Assay [3] deals with T3, Myotonin-protein kinase (Homo sapiens) (UniProt Q09013).
T3 sequence (whole entry): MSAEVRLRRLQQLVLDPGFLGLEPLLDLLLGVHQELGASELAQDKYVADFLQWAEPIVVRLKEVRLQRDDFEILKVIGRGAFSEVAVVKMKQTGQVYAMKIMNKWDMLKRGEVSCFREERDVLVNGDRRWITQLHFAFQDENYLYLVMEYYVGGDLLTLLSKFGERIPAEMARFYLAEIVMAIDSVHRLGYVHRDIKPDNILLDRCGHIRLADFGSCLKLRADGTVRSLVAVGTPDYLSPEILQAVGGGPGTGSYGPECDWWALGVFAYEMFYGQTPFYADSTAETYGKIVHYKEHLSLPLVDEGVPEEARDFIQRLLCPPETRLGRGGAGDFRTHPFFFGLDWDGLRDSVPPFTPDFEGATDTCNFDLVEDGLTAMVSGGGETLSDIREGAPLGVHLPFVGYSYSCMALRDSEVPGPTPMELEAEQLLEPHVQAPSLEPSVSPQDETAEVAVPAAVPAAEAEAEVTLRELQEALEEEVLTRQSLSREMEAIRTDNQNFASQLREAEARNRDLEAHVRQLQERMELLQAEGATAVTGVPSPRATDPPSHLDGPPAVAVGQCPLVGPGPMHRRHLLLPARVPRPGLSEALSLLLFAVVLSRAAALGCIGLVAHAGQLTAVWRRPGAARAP
Particulars: at 10 µM.

For assay [4], the target named is Bone morphogenetic protein receptor type-1A (Homo sapiens, UniProt P36894). Briefly: Selectivity interaction (KinomeScan (DiscoverX)) EUB0000045b BMPR1A.
Bone morphogenetic protein receptor type-1A, sequence (P36894 whole entry): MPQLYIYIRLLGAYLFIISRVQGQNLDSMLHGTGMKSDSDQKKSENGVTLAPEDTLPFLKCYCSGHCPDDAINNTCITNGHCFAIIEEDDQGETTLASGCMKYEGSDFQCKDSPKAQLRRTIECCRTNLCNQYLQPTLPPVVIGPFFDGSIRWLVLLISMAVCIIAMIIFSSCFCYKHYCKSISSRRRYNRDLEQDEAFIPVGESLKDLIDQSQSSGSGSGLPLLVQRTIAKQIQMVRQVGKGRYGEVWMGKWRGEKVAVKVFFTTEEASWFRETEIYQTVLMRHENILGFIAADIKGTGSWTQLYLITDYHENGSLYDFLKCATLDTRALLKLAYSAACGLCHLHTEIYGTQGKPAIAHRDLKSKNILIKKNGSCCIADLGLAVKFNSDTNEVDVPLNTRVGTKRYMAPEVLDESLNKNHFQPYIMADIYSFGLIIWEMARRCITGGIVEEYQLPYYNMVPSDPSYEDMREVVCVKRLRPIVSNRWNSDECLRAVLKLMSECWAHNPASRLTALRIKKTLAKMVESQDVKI
Assay [5] deals with T4, Homeodomain-interacting protein kinase 4 (Homo sapiens) (UniProt Q8NE63).
T4 sequence (whole entry): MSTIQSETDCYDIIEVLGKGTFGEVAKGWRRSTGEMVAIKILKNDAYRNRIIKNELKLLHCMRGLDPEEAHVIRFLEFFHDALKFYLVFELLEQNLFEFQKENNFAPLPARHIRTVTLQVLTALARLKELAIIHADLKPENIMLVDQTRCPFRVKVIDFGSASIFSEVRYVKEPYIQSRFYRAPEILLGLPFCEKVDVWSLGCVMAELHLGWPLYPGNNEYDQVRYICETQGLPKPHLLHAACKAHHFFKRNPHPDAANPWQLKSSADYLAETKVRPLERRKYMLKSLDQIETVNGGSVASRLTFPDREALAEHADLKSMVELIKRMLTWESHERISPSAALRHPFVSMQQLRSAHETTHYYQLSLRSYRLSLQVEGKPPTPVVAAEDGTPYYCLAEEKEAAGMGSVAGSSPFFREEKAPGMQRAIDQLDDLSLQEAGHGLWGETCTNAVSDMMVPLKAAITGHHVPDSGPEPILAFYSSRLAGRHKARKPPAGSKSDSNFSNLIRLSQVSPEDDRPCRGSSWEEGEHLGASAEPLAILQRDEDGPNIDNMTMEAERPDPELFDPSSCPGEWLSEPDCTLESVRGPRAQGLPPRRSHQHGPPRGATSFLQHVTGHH
The assay can be described thus: Selectivity interaction (KinomeScan (DiscoverX)) EUB0000092b HIPK4. Particulars: at 10 µM.

With `O=C(NOC[C@H](O)CO)c1ccc(F)c(F)c1Nc1ccc(I)cc1F`, in assay [1], the % of control came out at 100%.
Turning to `CNC(=O)Nc1ccc(-c2nc(N3CC4CCC(C3)O4)c3cnn(C4CCC5(CC4)OCCO5)c3n2)cc1`, the % of control in assay [2] is 100%.
Turning to `Cc1cc([C@@H](C)Nc2ccccc2C(=O)O)c2nc(N3CCOCC3)cc(=O)n2c1` [AZD-6482], in assay [3], the % of control stood at 100%.
Turning to `C=CC(=O)Nc1cc(-n2c(=O)ccc3cnc4ccc(-c5ccc(NS(C)(=O)=O)cc5)cc4c32)ccc1C`, the % of control in assay [4] (at 1 µM) was 84%; in assay [4] (at 10 µM), 100%.
As to `CCC(=O)N1CCN(c2ccc(-n3c(=O)ccc4cnc5ccc(-c6cnc7ccccc7c6)cc5c43)cc2C(F)(F)F)CC1`, in assay [5], the % of control was determined as 4.6%.
